Experimental data taken from publication PMC12391391, “The balance between B55α and Greatwall expression levels predicts sensitivity to Greatwall inhibition in cancer cells” (Nature Communications, 2025).
Like-named read-outs stand apart in the source and are kept apart here.

How the values were obtained:
in vitro [1] = test: in vitro; design: intrinsic clearance in mouse microsomes; conditions: liver microsomes; mouse liver microsomes
From the text: (§1) We selected compound 1 as the lead exemplar of cluster 3 and leveraged it as a foundation for subsequent drug development (Fig. 1a). Structure-activity relationship studies and pharmacokinetic profiling produced several derivative molecules, of which compound 21 provided the best combination of outstanding inhibitory potential, low clearance in mouse microsomes and acceptable solubility (Fig. 1a–c and Supplementary Tables 1–4). […] This assessment was supported by structural modelling of the interaction between compound 21 and the active site of GWL (Fig. 1d). In further support of its GWL-targeting properties, compound 21 diminished the phosphorylation of the canonical GWL substrate ENSA(S67) in Xenopus laevis cytostatic factor (CSF) egg extract (Supplementary Fig. 2). Having satisfied the criteria of prospective GWL inhibitor, the racemic compound 21 was registered as UOS-00054604 and, for the remainder of the manuscript, is referred to as C-604.

in vitro [2] = test: in vitro; design: intrinsic clearance in human microsomes; conditions: liver microsomes; human liver microsomes; read-out: Cl (human)
From the text: as §1

PRKD2 = biological target: T1, PRKD2 (Homo sapiens, UniProt Q9BZL6); test: biochemical; design: LanthaScreen kinase activity assay (Thermo Fisher), dose-dependent inhibition by C-604; conditions: read-out: IC50 (C-604)
T1 sequence (Q9BZL6 1-878): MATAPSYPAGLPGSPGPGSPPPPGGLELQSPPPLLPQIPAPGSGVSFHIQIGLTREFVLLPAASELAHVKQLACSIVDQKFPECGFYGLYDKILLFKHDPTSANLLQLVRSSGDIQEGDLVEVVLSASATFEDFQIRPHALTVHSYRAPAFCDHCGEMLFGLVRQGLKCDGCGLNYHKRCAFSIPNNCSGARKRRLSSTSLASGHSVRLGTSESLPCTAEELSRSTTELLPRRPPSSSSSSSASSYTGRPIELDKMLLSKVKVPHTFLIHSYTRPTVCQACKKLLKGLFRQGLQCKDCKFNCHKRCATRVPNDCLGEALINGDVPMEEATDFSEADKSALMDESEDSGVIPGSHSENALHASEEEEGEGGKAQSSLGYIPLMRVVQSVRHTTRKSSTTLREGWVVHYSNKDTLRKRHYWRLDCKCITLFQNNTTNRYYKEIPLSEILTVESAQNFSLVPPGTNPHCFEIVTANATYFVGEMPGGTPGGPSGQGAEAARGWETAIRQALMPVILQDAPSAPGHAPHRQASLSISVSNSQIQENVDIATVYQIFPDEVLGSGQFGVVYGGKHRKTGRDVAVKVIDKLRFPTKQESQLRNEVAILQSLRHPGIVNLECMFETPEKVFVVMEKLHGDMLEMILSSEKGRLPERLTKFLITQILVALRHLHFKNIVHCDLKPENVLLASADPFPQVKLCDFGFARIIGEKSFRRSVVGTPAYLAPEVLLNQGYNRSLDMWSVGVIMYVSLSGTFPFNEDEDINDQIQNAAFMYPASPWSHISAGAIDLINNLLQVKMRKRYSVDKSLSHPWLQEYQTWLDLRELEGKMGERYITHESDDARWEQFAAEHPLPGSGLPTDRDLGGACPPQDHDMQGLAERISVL
Method: To identify potential C-604 off-targets, we utilised a commercially available off-target screening service (Thermo Fisher Scientific) to assess the impact of C-604 on the in vitro activity of 100 human kinases (Supplementary Fig. 8a). Out of 100 tested targets, C-604 (1 µM) inhibited GWL (inhibition 95%) and an additional 10 kinases (inhibition ≥ 80%). […] The in vitro off-target effects of compound C-604 were determined by assessing its inhibitory potential in a panel of 100 human kinases using the LanthaScreen Kinase Activity Assay (Thermo Fisher Scientific).

microsomal CLint (in vitro [1]): 24 µL/min/mg | microsomal CLint (in vitro [2]): 13 µL/min/mg | IC50 (PRKD2): 373 nM
Compound: CNC(=O)c1c[nH]c2ncc(-c3ccc(OCCN4CCC(c5ccccc5)C4)cc3)nc12 (racemic) [compound 21, C-604]
